Assay results: patent publication US20120016009A1, “Optimized Methods For Delivery Of DSRNA Targeting The PCSK9 Gene” (priority 2008, published 2012)
In the oligonucleotide strings, read from the 5' end, every base follows the letter of its sugar. An asterisk marks phosphorothioate; unmarked linkages are phosphodiester. Other units and linkages are bracketed, terminal groups are in braces. A string of capitals states the bases alone. [Ab] = 3'-terminal abasic nucleotide; e = 2'-O-(2-methoxyethyl) (MOE); d = 2'-deoxy (DNA); m = 2'-O-methyl; r = 2'-OH (RNA); {P} = phosphate; f = 2'-fluoro

These substances were tested on PCSK9 mRNA (assay: In vitro screening of modified dsRNAs targeted to PCSK9 (Table 2b; cell type not given)). Conditions: 30 nM siRNA.
Format: cell-based
Summary of the method: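 siRNA at 30 nM (single-dose screen) was transfected with lipofectamine 2000 into cells seeded at 2.0×10^4/well. After 24 h, cells were lysed and PCSK9 mRNA measured by Quantigene, normalized to GAPDH (n=8). Values are % remaining PCSK9 mRNA relative to cells given an unrelated control siRNA.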

Compared with “AD-12352: modified dsRNA, SEQ ID NO:1403/1404 (chain 1 fGmCfCmUfGmGfAmGfUmUfUmAfUmUfCmGfGmAfA; chain 2 rUrUrCrCrGmAmArUrAmAmArCrUrCrCrAmGmGmC*mC*mU)”, “AD-12052: modified dsRNA, SEQ ID NO:1339/1340 (chain 1 rGmCmCmUrGrGrArGmUmUmUrAmUmUmCrGrGrArArArAdTdT[Ab]; chain 2 rUrUrUrUrCrCrGrArArUrArArArCrUrCrCrArGrGrCdTdT[Ab])” is higher in “Remaining mRNA in % of controls at siRNA conc. of 30 nM” value (“Remaining mRNA in % of controls” below): 11% for the first, 81% for the second.

Compared with “AD-12375: modified dsRNA, SEQ ID NO:1447/1448 (chain 1 rGfCfCfUrGrGrArGfUfUfUrAfUfUfCrGrGrArAdT*dT; chain 2 rUrUrCrCrGrArArUrArArArCrUrCrCrArGrGrCdT*dT)”, “AD-12373: modified dsRNA, SEQ ID NO:1443/1444 (chain 1 GCCUGGAGUUUAUUCGGAATT; chain 2 rUrUrCrCrGrArArUrArArArCrUrCrCrArGrGrCdT*dT; chain 1: DNA at T, 2'-MOE at CU, RNA at AG, linkages o19 s1 (s phosphorothioate, o phosphodiester), methylation of C and T or U not given here)” is higher in “Remaining mRNA in % of controls” value: 16% for the first, 55% for the second.

Compared with “AD-12354: modified dsRNA, SEQ ID NO:1405/1406 (chain 1 fGmCfCmUfGmGfAmGfUmUfUmAfUmUfCmGfGmAfA; chain 2 rUrUrCrCrGrArArUrArArArCrUrCrCrArGrGrC*mC*mU)”, “AD-12396: modified dsRNA, SEQ ID NO:1487/1488 (chain 1 GCCUGGAGUUUAUUCGGAA; chain 2 UUCCGAAUAAACUCCAGGCCU; chemical modifications, chemistry not fully specified)” is higher in “Remaining mRNA in % of controls” value: 11% for the first, 59% for the second.

Going from “AD-12370: modified dsRNA, SEQ ID NO:1437/1438 (chain 1 GCCUGGAGUUUAUUCGGAATT; chain 2 {P}-fUfUfCfCrGrArAfUrArArAfCfUfCfCrArGrGfCdT*dT; chain 1: DNA at T, 2'-MOE at CU, RNA at AG, linkages o19 s1 (s phosphorothioate, o phosphodiester), methylation of C not given here)” to “AD-12380: modified dsRNA, SEQ ID NO:1455/1456 (chain 1 rGfCfCfUrGrGrArGfUfUfUrAfUfUfCrGrGrArAdT*dT; chain 2 {P}-mUfUmCfCmGfAmAfUmAfAmAfCmUfCmCfAmGfGmC*fC*mU)”, the “Remaining mRNA in % of controls” value falls from 68% to 8%.

Going from “AD-12058: modified dsRNA, SEQ ID NO:1351/1352 (chain 1 rGmCrCmUrGmGrAmGrUmUrUmArUmUrCmGrGmArA; chain 2 rUrUrCrCrGrArAmUrArArArCrUrCmCrArGrGrCdT*dT)” to “AD-12388: modified dsRNA, SEQ ID NO:1471/1472 (chain 1 rGfCfCfUrGrGrArGrGfUfUfUrAfUfUfCrGrGrArA; chain 2 {P}-mUfUmCfCmGfAmAfUmAfAmAfCmUfCmCfAmGfGmC)”, the “Remaining mRNA in % of controls” value rises from 9% to 19%.

Going from “AD-12057: modified dsRNA, SEQ ID NO:1349/1350 (chain 1 rGmCrCmUrGmGrAmGrUmUrUmArUmUrCmGrGmArA; chain 2 rUrUrCrCrGrArArUrArArArCrUrCrCrArGrGrCdT*dT)” to “AD-12371: modified dsRNA, SEQ ID NO:1439/1440 (chain 1 GCCUGGAGUUUAUUCGGAATT; chain 2 {P}-fUfUfCfCrGrArAfUrArArAfCfUfCfCrArGrGfC*fC*fU; chain 1: DNA at T, 2'-MOE at CU, RNA at AG, linkages o19 s1 (s phosphorothioate, o phosphodiester), methylation of C and T or U not given here)”, the “Remaining mRNA in % of controls” value rises from 8% to 60%.

Compared with “AD-12041: modified dsRNA, SEQ ID NO:1317/1318 (chain 1 rGmCmCmUrGrGrArGmUmUmUrAmUmUmCrGrGrArAdT*dT; chain 2 rUrUrCmCrGrArArUrArArArCrUrCrCrArGrGrCdT*dT)”, “AD-12403: modified dsRNA, SEQ ID NO:1501/1502 (chain 1 rGfCfCfUrGrGrArGrGfUfUfUrAfUfUfCrGrGrArA; chain 2 {P}-fUfUfCfCrGrArAfUrArArAfCfUfCfCrArGrGfC*fC*fU)” is lower in “Remaining mRNA in % of controls” value: 11% for the first, 4% for the second.

First: AD-12051: modified dsRNA, SEQ ID NO:1337/1338 (chain 1 rGmCmCmUrGrGrArGmUmUmUrAmUmUmCrGrGrArArAdTdT[Ab]; chain 2 rUrUrUrCrCrGrArAmUrArArArCrUrCrCrArGrGrCdTdT[Ab])
Second: AD-12340: modified dsRNA, SEQ ID NO:1379/1380 (chain 1 rGmCmCmUrGrGrArGmUmUmUrAmUmUmCrGrGrArA; chain 2 {P}-mUfUmCfCmGfAmAfUmAfAmAfCmUfCmCfAmGfGmC)
The “Remaining mRNA in % of controls” value of the first is higher: 31% for the first, 19% for the second.

Compared with “AD-12039: modified dsRNA, SEQ ID NO:1313/1314 (chain 1 rGmCmCmUrGrGrArGmUmUmUrAmUmUmCrGrGrArAdT*dT; chain 2 rUmUrCrCrGrArArUrArArArCrUrCrCrArGrGrCdT*dT)”, “AD-12385: modified dsRNA, SEQ ID NO:1465/1466 (chain 1 GCCUGGNAGUUUAUUCGGAATT; chain 2 {P}-fUfUfCfCrGrArAfUrArArAfCfUfCfCrArGrGfCdT*dT; chain 1: chemistry not given here; further chemistry not fully specified)” is lower in “Remaining mRNA in % of controls” value: 29% for the first, 8% for the second.

Going from “AD-12038: modified dsRNA, SEQ ID NO:1311/1312 (chain 1 rGmCmCmUrGrGrArGmUmUmUrAmUmUmCrGrGrArAdT*dT; chain 2 mUrUrCrCrGrArArUrArArArCrUrCrCrArGrGrCdT*dT)” to “AD-12339: modified dsRNA, SEQ ID NO:1377/1378 (chain 1 rGmCrCmUrGmGrAmGrUmUrUmArUmUrCmGrGmArA; chain 2 {P}-mUfUmCfCmGfAmAfUmAfAmAfCmUfCmCfAmGfGmC)”, the “Remaining mRNA in % of controls” value rises from 13% to 14%.

First: AD-12399: modified dsRNA, SEQ ID NO:1493/1494 (chain 1 GCCUGGNAGUUUAUUCGGAATT; chain 2 {P}-fUfUfCfCrGrArAfUrArArAfCfUfCfCrArGrGfC*fC*fU; chain 1: chemistry not given here; further chemistry not fully specified)
Second: AD-12044: modified dsRNA, SEQ ID NO:1323/1324 (chain 1 rGrCrCrUrGrGrArGrUrUrUrArUrUrCrGrGrArAdT*dT; chain 2 rUrUmCrCrGrArArUrArArArCrUrCrCrArGrGrCdT*dT)
The “Remaining mRNA in % of controls” value of the first is higher: 13% for the first, 7% for the second.

Compared with “AD-12392: modified dsRNA, SEQ ID NO:1479/1480 (chain 1 rGfCfCfUrGrGrArGrGfUfUfUrAfUfUfCrGrGrArA; chain 2 rUrUrCrCrGrArArUrArArArCrUrCrCrArGrGrCdT*dT)”, “AD-12356: modified dsRNA, SEQ ID NO:1409/1410 (chain 1 fGmCfCmUfGmGfAmGfUmUfUmAfUmUfCmGfGmAfA; chain 2 mUrUmCrCrGrArAmUrArArArCrUmCmCrArGrGrCdT*dT)” is lower in “Remaining mRNA in % of controls” value: 28% for the first, 25% for the second.

Going from “AD-12394: modified dsRNA, SEQ ID NO:1483/1484 (chain 1 rGfCfCfUrGrGrArGrGfUfUfUrAfUfUfCrGrGrArA; chain 2 mUrUmCrCrGrArAmUrArArArCrUmCmCrArGrGrCdT*dT)” to “AD-12369: modified dsRNA, SEQ ID NO:1435/1436 (chain 1 GCCUGGAGUUUAUUCGGAATT; chain 2 rUrUrCrCrGrArArUrArArArCrUrCrCrArGrGrCdT*dT; chain 1: DNA at T, 2'-MOE at CU, RNA at AG, linkages o19 s1 (s phosphorothioate, o phosphodiester), methylation of C and T or U not given here)”, the “Remaining mRNA in % of controls” value falls from 75% to 26%.

First: AD-12049: modified dsRNA, SEQ ID NO:1333/1334 (chain 1 rGmCmCmUrGrGrArGmUmUmUrAmUmUmCrGrGrArArArArG; chain 2 rCrUrUrUrUrCrCrGrArArUrArArArCrUrCrCrArGrGrC*mC*mU)
Second: AD-12378: modified dsRNA, SEQ ID NO:1451/1452 (chain 1 rGfCfCfUrGrGrArGfUfUfUrAfUfUfCrGrGrArAdT*dT; chain 2 rUrUrCrCrGmAmArUrAmAmArCrUrCrCrAmGmGmC*mC*mU)
The “Remaining mRNA in % of controls” value of the first is higher: 34% for the first, 6% for the second.

First: AD-12359: modified dsRNA, SEQ ID NO:1415/1416 (chain 1 GCCUGGAGUUUAUUCGGAA; chain 2 {P}-mUfUmCfCmGfAmAfUmAfAmAfCmUfCmCfAmGfGmC*fC*mU; chain 1: sugars from the 5' end rererererererererer, all phosphodiester, methylation of C and T or U not given here)
Second: AD-12061: modified dsRNA, SEQ ID NO:1357/1358 (chain 1 GCCUGGNAGUUUAUUCGGAATT; chain 2 rUrUrCrCrGmAmArUrAmAmArCrUrCrCrAmGmGmCdT*dT; chain 1: chemistry not given here; sense strand contains an undefined nucleotide n)
The “Remaining mRNA in % of controls” value of the first is higher: 30% for the first, 7% for the second.
